Results on 32 molecules are retold here after patent publication US20090325964A1, “Piperazine Metabotropic Glutamate Receptor 5 (MGLUR5) Negative Allosteric Modulators For Anxiety/Depression” (Wyeth, priority 2008, published 2009).

The structures appear in SMILES notation.

As a reminder, the Ki is a measure of affinity in units of concentration, obtained from inhibition or displacement.

This test concerns the target T1, rat mGluR5 receptor (Rattus norvegicus, UniProt P31424).
T1 construct: expressed in transfected cells; host or cells: HEK-293
The experiment in a line: [3H]-MPEP displacement binding assay, HEK-293 cell membranes expressing rat mGluR5. The following applies: for inhibition at 10 µM: 1 h, single point, @ 10 μm compound, Table 1A, read-out: PCT INHIB (%) @ 10 μm; for Ki: read-out: Median Ki. As to the method: MGluR5 expressing HEK-293 cells were scraped off a plate, transferred to centrifuge tubes and washed twice by centrifugation (2000 rpm for 10 minutes, at 4° C.) in buffer (50 mM Tris pH 7.5). The resulting pellets were aliquoted and stored at minus 80° C. On the day of assay, the cells were thawed on ice and re-suspended in buffer. The binding assay was performed in a 96 well microtiter plate in a total volume of […]. Non-specific binding was determined in the presence of 10 μM MPEP. The binding reaction included a final radioligand [^3H]-MPEP concentration of 4 nM and 12-25 μg membrane protein per well. Following a 60 minute incubation at room temperature, the reaction was terminated by the addition of ice cold buffer and rapid filtration through a GF/B filter that had been presoaked for 30 minutes in 0.5% PEI. Compounds were initially tested in a single point assay to determine percent inhibition at 10 μM.
Percent inhibition and Ki values were generated by GraphPad Prism and Excel Fit. IC50 values were calculated using GraphPad by fitting to a 1 or 2 site-binding model.
where [L] is the concentration of free radioligand and Kd is the dissociation constant of radioligand for the receptor.

T1 sequence (P31424 21-1203): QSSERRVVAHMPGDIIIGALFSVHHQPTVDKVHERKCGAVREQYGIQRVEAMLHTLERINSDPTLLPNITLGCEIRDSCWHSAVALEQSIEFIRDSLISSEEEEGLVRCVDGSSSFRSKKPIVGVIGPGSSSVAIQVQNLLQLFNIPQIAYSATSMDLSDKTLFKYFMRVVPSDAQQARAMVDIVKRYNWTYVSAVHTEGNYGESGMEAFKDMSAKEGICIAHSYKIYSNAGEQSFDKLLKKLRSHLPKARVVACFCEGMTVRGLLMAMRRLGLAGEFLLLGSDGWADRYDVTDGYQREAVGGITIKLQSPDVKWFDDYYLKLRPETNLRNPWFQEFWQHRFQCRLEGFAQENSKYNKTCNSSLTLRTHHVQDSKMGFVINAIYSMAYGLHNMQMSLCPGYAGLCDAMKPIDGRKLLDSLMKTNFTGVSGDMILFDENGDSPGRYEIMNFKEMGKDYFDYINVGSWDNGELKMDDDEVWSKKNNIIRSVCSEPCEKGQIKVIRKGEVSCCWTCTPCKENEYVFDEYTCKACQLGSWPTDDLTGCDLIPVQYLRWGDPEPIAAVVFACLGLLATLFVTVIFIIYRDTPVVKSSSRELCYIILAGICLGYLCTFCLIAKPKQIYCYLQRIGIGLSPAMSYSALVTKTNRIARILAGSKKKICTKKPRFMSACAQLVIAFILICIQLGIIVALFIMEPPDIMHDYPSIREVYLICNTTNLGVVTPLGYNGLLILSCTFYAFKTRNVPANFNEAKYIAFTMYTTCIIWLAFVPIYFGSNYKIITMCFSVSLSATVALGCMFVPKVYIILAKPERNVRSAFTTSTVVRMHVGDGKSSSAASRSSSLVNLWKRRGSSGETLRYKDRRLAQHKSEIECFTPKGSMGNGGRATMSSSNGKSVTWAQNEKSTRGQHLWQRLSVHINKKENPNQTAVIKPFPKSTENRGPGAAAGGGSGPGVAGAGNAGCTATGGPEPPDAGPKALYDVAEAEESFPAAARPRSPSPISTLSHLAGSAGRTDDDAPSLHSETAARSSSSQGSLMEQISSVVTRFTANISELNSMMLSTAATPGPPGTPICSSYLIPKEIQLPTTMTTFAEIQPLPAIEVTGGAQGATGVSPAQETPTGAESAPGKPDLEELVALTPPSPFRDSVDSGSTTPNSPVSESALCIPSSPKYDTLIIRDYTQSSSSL

Regarding `COc1ccc(C(=O)N2CCN(c3ccccn3)CC2)cc1C#CCc1ccccc1` [Compound 16, 1-[4-methoxy-3-(3-phenylprop-1-yn-1-yl)benzoyl]-4-pyridin-2-ylpiperazine], the inhibition at 10 µM stood at 84% and the Ki is 43 nM. For the molecule `COc1cccc(C#Cc2cc(C(=O)N3CCN(c4ccccn4)CC3)ccc2OC)c1` [Compound 17, 1-{4-methoxy-3-[(3-methoxyphenyl)ethynyl]benzoyl}-4-pyridin-2-ylpiperazine], the inhibition at 10 µM stood at 91% and the Ki was determined as 51 nM. On to `COc1ccc(C(=O)N2CCN(c3ccccn3)CC2)cc1C#Cc1cccc(C)c1` [Compound 18, 1-{4-methoxy-3-[(3-methylphenyl)ethynyl]benzoyl}-4-pyridin-2-ylpiperazine], for which the inhibition at 10 µM was 99% and the Ki came out at 6 nM. On to `COc1ccc(C(=O)N2CCN(c3ccccn3)CC2)cc1C#Cc1cccc(Cl)c1` [Compound 19, 1-{3-[(3-chlorophenyl)ethynyl]-4-methoxybenzoyl}-4-pyridin-2-ylpiperazine], for which the inhibition at 10 µM was found to be 97% and the inhibitory constant (Ki) was 6 nM.

Turning to `COc1cc(C#Cc2cc(C(=O)N3CCN(c4ccccn4)CC3)ccc2OC)cc(OC)c1` [Compound 20, 1-{3-[(3,5-dimethoxyphenyl)ethynyl]-4-methoxybenzoyl}-4-pyridin-2-ylpiperazine], the inhibition at 10 µM was 0%. With `COc1ccc(C(=O)N2CCN(c3ccccn3)CC2)cc1C#Cc1cc(F)cc(F)c1` [Compound 21, 1-{3-[(3,5-difluorophenyl)ethynyl]-4-methoxybenzoyl}-4-pyridin-2-ylpiperazine], the inhibition at 10 µM worked out at 79% and the Ki is 1940 nM. On to `COc1ccc(C(=O)N2CCN(c3ccccn3)CC2)cc1C#Cc1cc(C)ccc1C` [Compound 22, 1-{3-[(2,5-dimethylphenyl)ethynyl]-4-methoxybenzoyl}-4-pyridin-2-ylpiperazine], for which the inhibition at 10 µM was 43%. For the molecule `COc1ccc(C(=O)N2CCN(c3ccccn3)CC2)cc1C#Cc1cc(C)c(C)cc1C` [Compound 23, 1-{4-methoxy-3-[(2,4,5-trimethylphenyl)ethynyl]benzoyl}-4-pyridin-2-ylpiperazine], the inhibition at 10 µM was 0%. For `Cc1ccc(C(=O)N2CCN(c3ccccn3)CC2)cc1C#CC1=CCCCC1` [Compound 24, 1-[3-(cyclohex-1-en-1-ylethynyl)-4-methylbenzoyl]-4-pyridin-2-ylpiperazine], the inhibition at 10 µM was 71% and the Ki came out at 1290 nM. In the case of `Cc1ccc(C(=O)N2CCN(c3ccccn3)CC2)cc1C#CCc1ccccc1` [Compound 25, 1-[4-methyl-3-(3-phenylprop-1-yn-1-yl)benzoyl]-4-pyridin-2-ylpiperazine], the inhibition at 10 µM amounted to 63% and the Ki is 452 nM.

On to `COc1cccc(C#Cc2cc(C(=O)N3CCN(c4ccccn4)CC3)ccc2C)c1` [Compound 26, 1-{3-[(3-methoxyphenyl)ethynyl]-4-methylbenzoyl}-4-pyridin-2-ylpiperazine], for which the inhibition at 10 µM was found to be 86% and the inhibition constant (Ki) was determined as 322 nM. As for `Cc1ccc(C(=O)N2CCN(c3ccccn3)CC2)cc1C#Cc1cccc(C(F)(F)F)c1` [Compound 27, 1-(4-methyl-3-{[3-(trifluoromethyl)phenyl]ethynyl}benzoyl)-4-pyridin-2-ylpiperazine], the inhibition at 10 µM was determined as 81% and the inhibitory constant (Ki) came out at 469 nM.

Regarding `Cc1ccc(C(=O)N2CCN(c3ccccn3)CC2)cc1C#Cc1cccc(Cl)c1` [Compound 28, 1-{3-[(3-chlorophenyl)ethynyl]-4-methylbenzoyl}-4-pyridin-2-ylpiperazine], the inhibition at 10 µM is 79% and the inhibition constant Ki was determined as 76 nM. With `Cc1ccc(C(=O)N2CCN(c3ccccn3)CC2)cc1C#Cc1cc(F)cc(F)c1` [Compound 29, 1-{3-[(3,5-difluorophenyl)ethynyl]-4-methylbenzoyl}-4-pyridin-2-ylpiperazine], the inhibition at 10 µM was found to be 41%. As to `Cc1ccc(C)c(C#Cc2cc(C(=O)N3CCN(c4ccccn4)CC3)ccc2C)c1` [Compound 30, 1-{3-[(2,5-dimethylphenyl)ethynyl]-4-methylbenzoyl}-4-pyridin-2-ylpiperazine], the inhibition at 10 µM amounted to 55% and the Ki was determined as 3810 nM. `Cc1cc(C#Cc2cc(C(=O)N3CCN(c4ccccn4)CC3)ccc2C)ccc1F` [Compound 31, 1-{3-[(4-fluoro-3-methylphenyl)ethynyl]-4-methylbenzoyl}-4-pyridin-2-ylpiperazine]: the inhibition at 10 µM was found to be 68% and the inhibition constant (Ki) was found to be 472 nM. Turning to `Cc1ccc(C(=O)N2CCN(c3ccccn3)CC2)cc1C#Cc1cccnc1` [Compound 32, 1-[4-methyl-3-(pyridin-3-ylethynyl)benzoyl]-4-pyridin-2-ylpiperazine], the inhibition at 10 µM turned out to be 68% and the Ki was 3110 nM.

For `COc1ccc(C(=O)N2CCN(c3ccccn3)CC2)cc1C#Cc1cccc(O)c1` [Compound 33, 3-({2-methoxy-5-[(4-pyridin-2-ylpiperazin-1-yl)carbonyl]phenyl}ethynyl)phenol], the inhibition at 10 µM was 82% and the inhibition constant Ki is 541 nM. In the case of `COc1ccc(C(=O)N2CCN(c3ccccn3)CC2)cc1C#Cc1cccc(N)c1` [Compound 34, 3-({2-methoxy-5-[(4-pyridin-2-ylpiperazin-1-yl)carbonyl]phenyl}ethynyl)aniline], the inhibition at 10 µM was determined as 62% and the Ki stood at 299 nM. Take `COc1ccc(C(=O)N2CCN(c3ccccn3)CC2)cc1C#Cc1cccnc1` [Compound 35, 1-[4-methoxy-3-(pyridin-3-ylethynyl)benzoyl]-4-pyridin-2-ylpiperazine]: the inhibition at 10 µM was 67% and the Ki is 898 nM. Consider `Cc1ccc(C(=O)N2CCN(c3ccccn3)CC2)cc1C#Cc1cccc(N)c1` [Compound 36, 3-({2-methyl-5-[(4-pyridin-2-ylpiperazin-1-yl)carbonyl]phenyl}ethynyl)aniline], for which the inhibition at 10 µM came out at 79% and the Ki was 474 nM.

Consider `COc1ccc(C(=O)N2CCN(c3ccccn3)CC2)cc1C#Cc1ccc(F)c(C)c1` [Compound 37, 1-{3-[(4-fluoro-3-methylphenyl)ethynyl]-4-methoxybenzoyl}-4-pyridin-2-ylpiperazine], for which the inhibition at 10 µM turned out to be 74% and the Ki was found to be 54.7 nM. Take `Cc1cccc(C#Cc2cc(C(=O)N3CCN(c4ccccn4)CC3)ccc2C)c1` [Compound 39, 1-{4-methyl-3-[(3-methylphenyl)ethynyl]benzoyl}-4-pyridin-2-ylpiperazine]: the inhibition at 10 µM came out at 83% and the Ki was found to be 57.1 nM. On to `COc1cc(C#Cc2cc(C(=O)N3CCN(c4ccccn4)CC3)ccc2C)cc(OC)c1` [Compound 40, 1-{3-[(3,5-dimethoxyphenyl)ethynyl]-4-methylbenzoyl}-4-pyridin-2-ylpiperazine], for which the inhibition at 10 µM is 0%.

With `Cc1cc(C)c(C#Cc2cc(C(=O)N3CCN(c4ccccn4)CC3)ccc2C)cc1C` [Compound 41, 1-{4-methyl-3-[(2,4,5-trimethylphenyl)ethynyl]benzoyl}-4-pyridin-2-ylpiperazine], the inhibition at 10 µM was determined as 0%. `Cc1ccc(C(=O)N2CCN(c3ccccn3)CC2)cc1C#Cc1ccccn1` [Compound 42, 1-[4-methyl-3-(pyridin-2-ylethynyl)benzoyl]-4-pyridin-2-ylpiperazine]: the inhibition at 10 µM was 96% and the inhibition constant (Ki) is 5.9 nM. With `COc1ccc(C(=O)N2CCN(c3ccccn3)CC2)cc1C#Cc1cccc(C(F)(F)F)c1` [Compound 43, 1-(4-methoxy-3-{[3-(trifluoromethyl)phenyl]ethynyl}benzoyl)-4-pyridin-2-ylpiperazine], the inhibition at 10 µM stood at 82% and the Ki was 278 nM. In the case of `COc1ccc(C(=O)N2CCN(c3ccccn3)CC2)cc1C#Cc1cc(C(F)(F)F)cc(C(F)(F)F)c1` [Compound 44, 1-(3-{[3,5-bis(trifluoromethyl)phenyl]ethynyl}-4-methoxybenzoyl)-4-pyridin-2-ylpiperazine], the inhibition at 10 µM came to 0%. In the case of `COc1ccc(C(=O)N2CCN(c3ccccn3)CC2)cc1C#Cc1ccncc1` [Compound 45, 1-[4-methoxy-3-(pyridin-4-ylethynyl)benzoyl]-4-pyridin-2-ylpiperazine], the inhibition at 10 µM worked out at 68% and the Ki was determined as 990 nM. As for `Cc1ccc(C(=O)N2CCN(c3ccccn3)CC2)cc1C#Cc1cccc(O)c1` [Compound 46, 3-({2-methyl-5-[(4-pyridin-2-ylpiperazin-1-yl)carbonyl]phenyl}ethynyl)phenol], the inhibition at 10 µM came out at 71% and the Ki stood at 1310 nM.

Regarding `Cc1ccc(C(=O)N2CCN(c3ccccn3)CC2)cc1C#Cc1cc(C(F)(F)F)cc(C(F)(F)F)c1` [Compound 47, 1-(3-{[3,5-bis(trifluoromethyl)phenyl]ethynyl}-4-methylbenzoyl)-4-pyridin-2-ylpiperazine], the inhibition at 10 µM worked out at 0%.

`Cc1ccc(C(=O)N2CCN(c3ccccn3)CC2)cc1C#Cc1ccncc1` [Compound 48, 1-[4-methyl-3-(pyridin-4-ylethynyl)benzoyl]-4-pyridin-2-ylpiperazine]: the inhibition at 10 µM is 49%.
